The values that follow come from patent US10948480B2, “Immunity to folate receptors” (priority 2006, dated 2021).

Values joined by “and” are separate entries in the source; they are usually repeats but may differ in a detail not shown here. Equal values may be shown once.

For one experiment, the system named is PBMCs (T cells). The experiment can be described thus: 10-day IFN-γ ELIspot for low-frequency T cells. It is filed as cell-based, human. The note with it: for Healthy Donor Proportion (%) responding: healthy donors; for Healthy Donor Proportion (%) responding / Patients Proportion (%) responding: 10 μg/mL polypeptide, positive = p<0.05 vs no antigen and >1:100,000; for Patients Proportion (%) responding: breast and ovarian cancer patients. The procedure:
An equal volume of Hank's balanced salt solution (HBSS) was added to the blood samples. Twenty-five mL of diluted blood was overlaid onto 15 mL of Ficoll-Paque in a 50 mL conical test tube centrifuged at 374×g for 35 minutes at room temperature. Following centrifugation, the buffy coats were centrifuged (12 minutes, 216×g). The cell pellets were washed and resuspended in freezing media (RPMI supplemented with 12.5% HSA, penicillin, streptomycin, and 2 mM glutamine). Cells were adjusted to 20×10^6/mL cells, and an equal volume of cold 12.5% HSA RPMI containing 25% DMSO (Sigma D2650) was added. Cells were aliquoted and transferred to a −80° C. freezer. After overnight incubation, the vials were transferred to liquid nitrogen.
For in vitro assay, each vial of cells was thawed, and the contents were transferred to a test tube containing 12 mL of cell culture media. Following centrifugation, the cells were resuspended in 2-3 mL of medium, and viability was determined by dye exclusion. The mean number of PBMC purified from the blood of donors was 1.6±0.07×10^6 cells/mL of whole blood for healthy donors and 1.0±0.07×10^6/mL for cancer patients (p<0.0001). This cryopreservation and thawing procedure was optimized for recovery of antigen-specific T cell function (Disis et al., J. Immunol. Methods, 308(1-2):13-8 (2006)).
A 10-day ELIspot for detecting low-frequency T cells was used to determine reactivity to the FRα-derived polypeptides (Table 1). ELIspots were carried out in groups of two donors (two healthy donors, one healthy donor/one cancer patient, or two cancer patients). The assay was carried out as described elsewhere (Knutson et al., J. Clin. Invest., 107:477-84 (2001)). On day 1, 2.5×10^5 PBMCs/well were plated into 96-well plates in 3-well replicates in 200 μL of RPMI-1640 containing L-glutamine, penicillin, streptomycin, and 10% fetal calf serum (T-cell medium) in the presence or absence of 10 μg/mL polypeptide antigen. The cells were incubated at 37° C. and IL-2 (Zeptometric, Inc., Buffalo, N.Y.) was added to 10 U/mL on day 5. On day 8, 2.5×10^5/well irradiated autologous PBMCs and 10 μg/mL antigens were added. On day 9, the cells were transferred to an anti-IFN-γ-coated nitrocellulose (NC)-plate (Millipore Corporation, Bedford, Mass.). The NC-plate was incubated (37° C.) for a further 20-24 hours followed by washing three times using PBS containing 0.05% Tween-20. The plate was then incubated for 2.5 hours at RT in PBS with 5 μg/mL biotinylated anti-IFN-γ Ab, washed in PBS, and further incubated with 100 μL/well avidin-horseradish peroxidase (HRP, Vector Laboratories, Burlingame, Calif.)) for 2 hours at room temperature. After three washes in PBS, the plate was incubated with 100 μL/well HRP-colorimetric substrate (Vector Laboratories) for 20-30 minutes, rinsed with cool tap water, and allowed to dry completely. The nitrocellulose plates were read on an AID ELIspot reader (Cell Technology, Inc., Columbia, Md.; reader software v.3.1.1.). […] A 17-amino acid polypeptide (KISQAVHAAHAEINEAG; SEQ ID NO: 1) derived from chicken egg ovalbumin, produced in the same fashion as the FRα polypeptides, was used as a control polypeptide. […] The anti-IFN-γ and biotinylated anti-IFN-γ antibody pair were obtained from Mabtech (Sweden).
The T cell magnitude for each donor was summed across all 14 polypeptides which, along with the response multiplicity, was compared with age using regression. Student's t test was used for means unless the data were not normally distributed, in which case Mann-Whitney test was used. Fisher's Exact Test was used for comparing proportions. A proportion was considered elevated, relative to other polypeptides, if that proportion was statistically elevated relative to the mean proportion, 8.7%, which is the ratio of the total number of significant (p<0.05, two-tailed t test) polypeptide-specific responses over the total number of donors. […]

For experiment [1], the system named is antibodies in diluted serums. Format: binding, human.
Experiment [2] has as its system PBMC (CD4 and CD8 T cells). The experiment in a line: IFN-γ cytokine flow cytometry. Format: cell-based, human. The conditions noted are these: PBMC from three patients that had responded to FR56. The procedure: PBMC were cultured with peptide (10 μg/mL) for seven days. IL-2 (20 U/mL) were added on Day 3. After seven days, the cells were distributed into a 96-well plate with fresh irradiated autologous PBMC. Either medium alone or medium supplemented with PHA-L (20 μg/well) or recall polypeptide (10 μg/well) was added to the appropriate wells for 29 hours. Golgi-Stop was added for the last five hours followed by washing in PBS-0.5% BSA. The cells were resuspended in the same buffer containing anti-CD4-FITC and anti-CD8-APC for 30 minutes, followed by washes and fixing. The cells were permeabilized alone or with unconjugated anti-human IFN-γ (adsorption control) followed by washing and incubation with anti-human anti-IFN-γ-APC for 30 minutes. The cells were washed, fixed, and analyzed using a BD Biosciences FACscan flow cytometer and CellQuest Pro Software (version 4.0.2., BD Biosciences). A response to antigen was considered as positive if there was at least a 50% increase in IFN-γ[…] cells, and it was blocked by the adsorption control.

Regarding “LGPWIQQVDQSWRKERV (listed as Homo sapiens) [FR113]”, in the experiment with PBMCs (T cells), the “Healthy Donor Proportion (%) responding” value turned out to be 0%.
For the substance “KDVSYLYRFNWNHCGEMA (listed as Homo sapiens) [FR76]”, in the experiment with PBMCs (T cells), the “Patients Proportion (%) responding” value is on record as 13% and the “Healthy Donor Proportion (%) responding” value is listed as 11%.
With “MTTQLLLLLVWVAVVGEAQ (listed as Homo sapiens) [FR5]”, in the experiment with PBMCs (T cells), the “Patients Proportion (%) responding” value is on record as 17% and the “Healthy Donor Proportion (%) responding” value is 6%.
With tetanus toxin [TT], the Antibody responses in experiment [1] was 30 ± 4 µg/mL and 27 ± 4 µg/mL.
Regarding “ACKRHFIQDTCLYECS (listed as Homo sapiens) [FR95]”, in the experiment on PBMCs (T cells), the “Patients Proportion (%) responding” value is on record as 23% and the “Healthy Donor Proportion (%) responding” value came out at 6%.
The matching figures for “VDQSWRKERVLNVPL (listed as Homo sapiens) [FR120]”: 13% and 11%.
For “LLVWVAVVGEAQTRI (listed as Homo sapiens) [FR12]”, in the experiment on PBMCs (T cells), the “Patients Proportion (%) responding” value was found to be 7% and the “Healthy Donor Proportion (%) responding” value was found to be 6%.
Taken in the same sequence, the figures for “WHKGWNWTSGFNKCAVGA (listed as Homo sapiens) [FR156]” were 23% and 17%.
As for “VARFYAAAMSGAGPWA (listed as Homo sapiens) [FR225]”, in the experiment on PBMCs (T cells), the “Patients Proportion (%) responding” value is recorded as 7% and the “Healthy Donor Proportion (%) responding” value is 22%.
Substance “QCRPWRKNACCSTNT (listed as Homo sapiens) [FR56]” showed an ELIspot response with PBMCs (T cells) (healthy donor 15, no antigen control 5±1) of 3±1 spots/well. Also, the “Healthy Donor Proportion (%) responding” value in the experiment with PBMCs (T cells) is listed as 6%. Moreover, the “recognition by ovarian vs breast cancer patients” value in the experiment with PBMCs (T cells) (p=0.05) is listed as “recognized more often”. The ELIspot response in the experiment with PBMCs (T cells) (patient 37, mean±s.e.m., n=3, no antigen 26±2) is listed as 183±17 spots/well. In experiment [2], the “patients with CD4 T cell response” value was “All three” and the “patients with CD8 T cell response” value is “two of three”.
Turning to “RTELLNVCMNAKHHKEK (listed as Homo sapiens) [FR30]”, the “Healthy Donor Proportion (%) responding” value with PBMCs (T cells) is listed as 6%.
As for “CKSNWHKGWNWTSGFN (listed as Homo sapiens) [FR152]”, in the experiment with PBMCs (T cells), the “Patients Proportion (%) responding” value was found to be 23% and the “Healthy Donor Proportion (%) responding” value worked out at 6%.
For the substance “KISQAVHAAHAEINEAG (listed as Gallus gallus) [ovalbumin-derived control polypeptide, reference compound]”, the “responses in patients vs healthy donors” value in the experiment with PBMCs (T cells) (comparison of the two populations (FIG. 3A)) is on record as “not different”.
Consider “PWAAWPFLLSLALMLLWL (listed as Homo sapiens) [FR238]”, for which, in the experiment with PBMCs (T cells), the “Patients Proportion (%) responding” value was 23%.
As for “DCEQWWEDCRTSYTCK (listed as Homo sapiens) [FR138]”, in the experiment with PBMCs (T cells), the “Patients Proportion (%) responding” value was found to be 30% and the “Healthy Donor Proportion (%) responding” value is 22%.
As for “RTSYTCKSNWHKGWNWT (listed as Homo sapiens) [FR147]”, in the experiment on PBMCs (T cells), the “Patients Proportion (%) responding” value is 40% and the “Healthy Donor Proportion (%) responding” value stood at 22%.
